One experiment concerns Rat whole blood (RWB). Kind of experiment: LTB4 secretion assay in RWB (rat whole blood). The experiment is classed as cell-based. Conditions: Rattus norvegicus. As to the method: Rat blood was drawn from caudal vena cava from male Sprague Dawley rat (6-9 weeks old) in vacuette coated with sodium heparin (Greiner bio-one, Cat #455051). The blood was pooled and diluted with RPMI (WelGENE, Cat #LM 011-05) to 1:1. The diluted blood was aliquoted into 96 well plate (200 ul per well) and compounds were added in dose response to a desired concentration ranging from 2.5 nM to 50 uM. After 15 min of pre-incubation at 37° C., calcium ionophore (A23187) was added to the final concentration of 10 uM. After 10 min of further incubation at 37° C., the LTB4 production was stopped by diluting the reaction mixture with ice cold PBS (1:4 dilutions). Cells were removed by centrifugation at 1000×g, 4° C. for 10 min, and the supernatant was transferred and then the quantification of LTB4 was done with Leukotriene B4 EIA kit (Cayman, Cat #520111) as instructed.

The subject of experiment [1] is Rat basophilic leukemia (RBL) cells. Kind of experiment: LTB4 secretion assay in RBL (rat basophilic leukemia cells). The class given is cell-based. The note with it: Rattus norvegicus, RBL. In short, it runs like this: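 Cells seeded 2×10^4/well the day before, then pre-incubated 15 min at 37 °C in EMEM/0.5% FBS with compound (5 nM to 100 uM). Stimulation with 2.5 uM arachidonic acid plus 5 uM A23187 (final) for 10 min at 37 °C; LTB4 in supernatant quantified by EIA.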

Another experiment deals with T1, human 5-LOX (Homo sapiens, UniProt P09917).
T1 construct: purchased Cayman 60402; host or cells: insect cells (lysate)
T1 sequence (P09917 1-674): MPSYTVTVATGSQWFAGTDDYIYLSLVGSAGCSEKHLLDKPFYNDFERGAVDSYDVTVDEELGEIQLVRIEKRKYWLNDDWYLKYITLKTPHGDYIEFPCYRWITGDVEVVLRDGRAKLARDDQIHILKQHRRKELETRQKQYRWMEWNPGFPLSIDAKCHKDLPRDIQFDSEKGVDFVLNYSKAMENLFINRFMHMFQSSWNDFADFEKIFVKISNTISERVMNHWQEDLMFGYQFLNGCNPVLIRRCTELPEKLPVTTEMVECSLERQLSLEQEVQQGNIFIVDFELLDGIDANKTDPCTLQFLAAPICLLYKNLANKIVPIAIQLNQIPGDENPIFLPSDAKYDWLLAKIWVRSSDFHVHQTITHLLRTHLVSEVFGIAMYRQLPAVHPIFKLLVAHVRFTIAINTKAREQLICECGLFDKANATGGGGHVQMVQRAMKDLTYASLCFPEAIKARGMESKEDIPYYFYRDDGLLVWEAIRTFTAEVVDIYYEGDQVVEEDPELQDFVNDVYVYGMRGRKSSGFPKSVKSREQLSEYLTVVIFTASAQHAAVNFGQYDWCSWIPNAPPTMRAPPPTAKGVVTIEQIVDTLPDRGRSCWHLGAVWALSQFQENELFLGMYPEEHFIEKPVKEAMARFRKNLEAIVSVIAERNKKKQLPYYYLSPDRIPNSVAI
Kind of experiment: 5-LOX enzyme activity, fluorescence method (5-HPETE, H2DCFDA). The note with it: read-out: 5-LO (IC50). The class given is biochemical. The procedure, abridged: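 Compound (0.5 nM to 10 uM) pre-incubated 5 min with enzyme; reaction started with ATP (100 uM final) and arachidonic acid (3 uM final). All steps at room temperature, fluorescence read-out.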

The record followed here is patent US11447486B2, “2-amino-benzimidazole derivatives and their use as 5-lipoxygenase and/or prostaglandin E synthase inhibitors” (INSTITUT PASTEUR KOREA, priority 2014, dated 2022).

The term EC50 denotes the concentration that produces a half-maximal response. The IC50 is the concentration at which inhibition is half-maximal.

As for `Cn1c(NCc2ccc(Oc3ncc(Cl)cc3F)cc2)nc2ccc(NC3COC3)cc21` [Compound 324], the EC50 (in the experiment on Rat whole blood (RWB); in experiment [1]) was below 10 µM in each case. The concentration for half-maximal inhibition (IC50) on human 5-LOX is below 1 µM.
For the molecule `Cn1c(NCc2ccc(Oc3ncc(Br)cn3)cc2)nc2ccc(NC3COC3)cc21` [Compound 362], the EC50 is below 10 µM in the experiment with Rat whole blood (RWB) and 10 to 20 µM in experiment [1]. In addition, the IC50 on human 5-LOX was below 1 µM.
In the same order, the values of `Cn1c(NCc2ccc(Oc3ncc(F)cn3)cc2)nc2ccc(NC3COC3)cc21` [Compound 337] are 10 to 20 µM, 10 to 20 µM and below 1 µM.
The matching figures for `Cn1c(NCc2ccc(Oc3cc(Cl)ncn3)cc2)nc2ccc(NC3COC3)cc21` [Compound 394]: above 20 µM, 10 to 20 µM and below 1 µM.
Regarding `Cn1nc(Nc2ccc3nc(NCc4ccc(Oc5ncc(Cl)cn5)cc4)n(C)c3c2)cc1C(F)(F)F` [Compound 468], the EC50 (in the experiment with Rat whole blood (RWB); in experiment [1]) was below 10 µM each time. Further, the IC50 at human 5-LOX was below 1 µM.
For the molecule `Cc1nnc(Nc2ccc3nc(NCc4ccc(Oc5ncc(Cl)cn5)cc4)n(C)c3c2)o1` [Compound 498], the EC50 with Rat whole blood (RWB) is below 10 µM; in experiment [1], above 20 µM. In addition, the IC50 on human 5-LOX is above 10 µM.
Turning to `Cc1cccnc1Nc1ccc2nc(NCc3ccc(Oc4ncc(Cl)cn4)cc3)n(C)c2c1` [Compound 464], the EC50 (with Rat whole blood (RWB); in experiment [1]) was below 10 µM each time. Further, the IC50 at human 5-LOX was 1 to 10 µM.
With `CCn1c(NCc2ccc(Oc3ncc(Cl)cn3)cc2)nc2ccc(Nc3cc(C(C)(C)C)[nH]n3)cc21` [Compound 509], the concentration giving a half-maximal response (EC50) (with Rat whole blood (RWB); in experiment [1]) was below 10 µM each time. The IC50 at human 5-LOX is below 1 µM.
As for `Clc1ccc(Oc2ccc(CNc3nc4cc(NCc5ccccn5)ccc4[nH]3)cc2)cc1` [Compound 149], the EC50 (with Rat whole blood (RWB); in experiment [1]) was below 10 µM in each case. For the same molecule, the IC50 at human 5-LOX was below 1 µM.
`CC(C)(Nc1ccc2[nH]c(NCc3ccc(Oc4ccc(Cl)cn4)cc3)nc2c1)C(N)=O` [Compound 177]: the EC50 (with Rat whole blood (RWB); in experiment [1]) was below 10 µM in each case. Further, the IC50 at human 5-LOX was below 1 µM.
For the molecule `CN(C)c1nc2ccc(NCc3ccc(-c4ccc(Cl)cn4)cc3)cc2[nH]1` [Compound 197], the EC50 with Rat whole blood (RWB) is above 20 µM; in experiment [1] it was below 10 µM. Moreover, the concentration for half-maximal inhibition (IC50) on human 5-LOX is below 1 µM.
The matching figures for `CN(C)c1ccc2nc(NCc3ccc(Oc4ccc(Cl)cn4)cc3)n(C)c2c1` [Compound 253]: below 10 µM, below 10 µM and below 1 µM.
In the same order, the values of `Nc1ccc2[nH]c(N3CCCC3c3ccc(Oc4ccc(Cl)cc4)cc3)nc2c1` (stereo not drawn) [Compound 145] are below 10 µM, below 10 µM and below 1 µM.
Consider `Cn1c(NCc2ccc(Oc3nc4ccc(N)cc4n3C)cc2)nc2ccc(NC3COC3)cc21` [Compound 409], for which the 50% effective concentration (EC50) (in the experiment with Rat whole blood (RWB); in experiment [1]) was above 20 µM in each case. In addition, the 50% inhibitory concentration (IC50) on human 5-LOX is below 1 µM.
Take `Cc1cc(Nc2ccc3nc(NCc4ccc(Oc5ncc(Cl)cn5)cc4)[nH]c3c2)n[nH]1` [Compound 470]: the EC50 (with Rat whole blood (RWB); in experiment [1]) was below 10 µM throughout. Further, the IC50 on human 5-LOX was below 1 µM.
`Nc1ccc2nc(NCCO)n(Cc3ccc(Oc4ccc(Cl)cc4)cc3)c2c1` [Compound 155]: the EC50 (with Rat whole blood (RWB); in experiment [1]) was below 10 µM each time. For the same molecule, the IC50 at human 5-LOX is below 1 µM.
As for `Cn1c(NCc2ccc(Oc3ccc(Cl)cn3)nc2)nc2ccc(NC3COC3)cc21` [Compound 309], the EC50 (with Rat whole blood (RWB); in experiment [1]) was above 20 µM throughout. Besides, at human 5-LOX, the IC50 is below 1 µM.
As for `Cn1c(NCc2ccc(Oc3ccc(Cl)cn3)cn2)nc2ccc(NC3COC3)cc21` [Compound 300], the half-maximal effective concentration (EC50) was 10 to 20 µM in the experiment with Rat whole blood (RWB) and below 10 µM in experiment [1]. Besides, the IC50 at human 5-LOX was below 1 µM.
In the same order, the values of `Nc1ccc2[nH]c(NCc3ccc(Oc4ccc(Cl)cn4)cc3)nc2c1` [Compound 138] are below 10 µM, below 10 µM and below 1 µM.
Take `Cc1cc(Nc2cnc3nc(NCc4ccc(Oc5ncc(Cl)cn5)cc4)n(C)c3c2)n[nH]1` [Compound 497]: the EC50 (in the experiment with Rat whole blood (RWB); in experiment [1]) was above 20 µM each time. For the same molecule, on human 5-LOX, the IC50 lay within 1 to 10 µM.
Regarding `CCn1c(NCc2ccc(Oc3ncc(Cl)cn3)cc2)nc2ccc(Nc3cc(C(F)(F)F)n(C)n3)cc21` [Compound 504], the EC50 (with Rat whole blood (RWB); in experiment [1]) was below 10 µM in each case. Moreover, the half-maximal inhibitory concentration (IC50) at human 5-LOX is 1 to 10 µM.
Take `Cn1c(NCc2ccc(Oc3cnc(N)nc3)cc2)nc2ccc(N)cc21` [Compound 360]: the EC50 was below 10 µM with Rat whole blood (RWB) and 10 to 20 µM in experiment [1]. Moreover, on human 5-LOX, the IC50 was below 1 µM.
In the same order, the values of `CC(C)(C)Nc1nc2cc(N)ccc2n1CCOc1ccc(OC(F)(F)F)cc1` [Compound 66] are above 20 µM, below 10 µM and below 1 µM.
Turning to `Cn1c(NCc2ccc(Oc3ncc(Cl)cn3)cc2)nc2ccc(Nc3cc(C(F)(F)F)[nH]n3)cc21` [Compound 475], the EC50 (in the experiment with Rat whole blood (RWB); in experiment [1]) was below 10 µM each time. In addition, the IC50 at human 5-LOX was below 1 µM.
With `Cn1c(NCc2ccc(Oc3ncc(Cl)cn3)cc2F)nc2ccc(NC3COC3)cc21` [Compound 381], the figures for the EC50 (in the experiment on Rat whole blood (RWB); in experiment [1]) were below 10 µM and above 20 µM, respectively. Besides, the IC50 at human 5-LOX is below 1 µM.
`COc1c(NC(C)c2ccc(Oc3ccc(OC(F)(F)F)cc3)cc2)ccc2[nH]c(N(C)C)nc12` (stereo not drawn) [Compound 191]: the EC50 in the experiment on Rat whole blood (RWB) is above 20 µM; in experiment [1], below 10 µM. Also, the half-inhibitory concentration (IC50) at human 5-LOX is below 1 µM.
For the molecule `Cn1c(NCc2c(F)cc(Oc3ncc(Cl)cn3)cc2F)nc2ccc(N)cc21` [Compound 430], the EC50 (in the experiment with Rat whole blood (RWB); in experiment [1]) was below 10 µM throughout. In addition, the IC50 at human 5-LOX was below 1 µM.
As to `COc1cc(Oc2ccc(Cl)cn2)ccc1CNc1nc2ccc(NC3COC3)cc2n1C` [Compound 328], the EC50 (with Rat whole blood (RWB); in experiment [1]) was below 10 µM in each case. Also, on human 5-LOX, the IC50 is below 1 µM.
In the case of `CN(C)c1nc2cc(NCc3ccc(-c4ccnn4C)cc3)ccc2[nH]1` [Compound 196], the concentration giving a half-maximal response (EC50) was 10 to 20 µM in the experiment on Rat whole blood (RWB) and below 10 µM in experiment [1]. Also, at human 5-LOX, the IC50 is below 1 µM.
In the same order, the values of `Nc1ccc2[nH]c(NCc3ccc(S(=O)(=O)c4ccc(Cl)cc4)cc3)nc2c1` [Compound 129] are above 20 µM, below 10 µM and below 1 µM.
For `Nc1ccc2c(c1)nc(N1CCC1)n2CCOc1ccc(OC(F)(F)F)cc1` [Compound 70], the EC50 is above 20 µM in the experiment on Rat whole blood (RWB) and below 10 µM in experiment [1]. Besides, at human 5-LOX, the IC50 was below 1 µM.
As for `CNc1nc2ccc(N)cc2n1Cc1ccc(Oc2ccc(Cl)cn2)cc1` [Compound 229], the EC50 (in the experiment on Rat whole blood (RWB); in experiment [1]) was below 10 µM throughout. In addition, the IC50 at human 5-LOX is below 1 µM.
`Cn1c(NCc2ccc(Oc3ncc(Cl)cn3)cc2)nc2ccc(Nc3cc[nH]n3)cc21` [Compound 450]: the EC50 (in the experiment with Rat whole blood (RWB); in experiment [1]) was below 10 µM in each case. The IC50 on human 5-LOX is below 1 µM.
In the case of `Nc1ccc2nc(NCc3ccc(C(=O)c4ccc(Cl)cc4)cc3)[nH]c2c1` [Compound 130], the EC50 (in the experiment with Rat whole blood (RWB); in experiment [1]) was below 10 µM each time. For the same molecule, the IC50 at human 5-LOX was below 1 µM.
`Cn1c(NCc2ccc(Oc3ccc(C#N)cn3)cc2)nc2ccc(N)cc21` [Compound 350]: the EC50 (in the experiment on Rat whole blood (RWB); in experiment [1]) was below 10 µM throughout. The IC50 on human 5-LOX is below 1 µM.
Consider `Nc1ccc2[nH]c(NCc3ccc(Oc4ccc(Cl)c(Cl)c4)cc3)nc2c1` [Compound 112], for which the EC50 in the experiment with Rat whole blood (RWB) was 10 to 20 µM; in experiment [1], below 10 µM. The IC50 at human 5-LOX is below 1 µM.
Consider `CC(C)(C)Nc1ccc2nc(N)n(CCOc3ccc(OC(F)(F)F)cc3)c2c1` [Compound 93], for which the EC50 in the experiment with Rat whole blood (RWB) was above 20 µM; in experiment [1] it was below 10 µM. Besides, on human 5-LOX, the concentration for half-maximal inhibition (IC50) was below 1 µM.
